{"source": "patent US11291656B2", "about": "“Pramipexole transdermal delivery system and uses thereof” (TRANSWELL BIOTECH CO., LTD., priority 2016, dated 2022)", "key": {"physchem": {"assay": "physchem", "procedure": "Numerous permeation enhancers were evaluated to identify suitable permeation enhancers, including permeation enhancers listed in Table 4 below that lists solubility of pramipexole in the respective permeation enhancers."}}, "note": "Read-outs that look alike come from different tables or passages of the source.", "data": [{"smiles": "CCCN[C@H]1CCc2nc(N)sc2C1", "note": "[Pramipexole]", "values": [{"measurement": "solubility", "setting": "physchem; Brij 30, organic solvent or mixture", "value": 111, "unit": "mg/mL"}, {"measurement": "solubility", "setting": "physchem; Transcutal P, organic solvent or mixture", "value": 122, "unit": "mg/mL"}, {"measurement": "solubility", "setting": "physchem; Tween 80, organic solvent or mixture", "value": 86.1, "unit": "mg/mL"}, {"measurement": "solubility", "setting": "physchem; ethyl acetate, organic solvent or mixture", "value": 34.3, "unit": "mg/mL"}, {"measurement": "solubility", "setting": "physchem; isopropyl alcohol, organic solvent or mixture", "value": 107, "unit": "mg/mL"}, {"measurement": "solubility", "setting": "physchem; limonene, organic solvent or mixture", "value": 5.34, "unit": "mg/mL"}, {"measurement": "solubility", "setting": "physchem; methanol, organic solvent or mixture", "value": 100, "unit": "mg/mL"}, {"measurement": "solubility", "setting": "physchem; methyl laurate, oil or lipid", "value": 7.07, "unit": "mg/mL"}, {"measurement": "solubility", "setting": "physchem; octanol, organic solvent or mixture", "value": 113, "unit": "mg/mL"}, {"measurement": "solubility", "setting": "physchem; oleic acid, oil or lipid", "value": 59, "unit": "mg/mL"}, {"measurement": "solubility", "setting": "physchem; oleyl alcohol, oil or lipid", "value": 113, "unit": "mg/mL"}, {"measurement": "solubility", "setting": "physchem; propylene glycol (PG), organic solvent or mixture", "value": 55.6, "unit": "mg/mL"}, {"measurement": "API solubility", "setting": "in adhesive DURO-TAK 87-2054 (acrylate-vinylacetate, —COOH)", "value": "adequate solubility"}, {"measurement": "API solubility", "setting": "in adhesive DURO-TAK 87-2054 (acrylate-vinylacetate, —COOH), listed as API", "value": 10, "unit": "%"}, {"measurement": "API solubility", "setting": "in adhesive DURO-TAK 87-2510 (Acrylic, —OH)", "value": "adequate solubility"}, {"measurement": "API solubility", "setting": "in adhesive DURO-TAK 87-2510 (Acrylic, —OH), listed as API", "value": 5, "unit": "%"}, {"measurement": "API solubility", "setting": "in adhesive DURO-TAK 87-2979 (acrylate-vinylacetate, —COOOH/—OH)", "value": "adequate solubility"}, {"measurement": "API solubility", "setting": "in adhesive DURO-TAK 87-2979 (acrylate-vinylacetate, —COOOH/—OH), listed as API", "value": 10, "unit": "%"}, {"measurement": "API solubility", "setting": "in adhesive DURO-TAK 87-4287 (acrylate-vinylacetate, —OH)", "value": "adequate solubility"}, {"measurement": "API solubility", "setting": "in adhesive DURO-TAK 87-4287 (acrylate-vinylacetate, —OH), listed as API", "value": 8, "unit": "%"}]}]}
